{"source": "patent US20030181659A1", "about": "“Thrombopoietin receptor modulating peptide” (priority 2000, published 2003)", "key": {"[1]": {"tested_on": "carboplatin treated mice", "format": "in vivo", "conditions": "for effects on other blood components: mouse, in vivo", "excerpt": "The model used for the in vivo experiments was reported previously (Akahori et al. (1996) Stem Cells 14:678-689, Akahori et al. (1996) Br. J. Haematol. 94:722-728, Shibuya et al. (1998) Blood 91:37-45, Andrews et al. (1996) Stem Cells 14:661-677). Improvements and modifications that were introduced are indicated below.\nEach test group (PBS, TPO, or TPO-Rp) was given as a single daily dose administered by intraperitoneal injection. Daily doses were begun on day 0 and continued throughout the duration of the experimental period (day 10). Two i.p. injections of carboplatin 90 mg/kg each (PBS for group 11) were given on days 0 and 4.\n(§1) Blood collections were taken on days −0 (basal), 8, 11, 14, and 18. Blood was obtained by sampling from the tail of mice (8 week old male C57BL/6Y mice), followed by cauterisation. A volume of 80 μl of blood from each mouse was collected into a heparinized blood collection tube. The 80 μl of blood was then mixed with 160 μl of saline containing sufficient EDTA (0.225%) to provide for anticoagulation.\n[…] Carboplatin is used to induce thrombocytopenia. In order to work with a model that is as similar as possible to clinical situations, a previously reported carboplatin model (Akahori et al. (1996) Stem Cells 14:678-689, Akahori et al. (1996) Br. J. Haematol. 94:722-728, Shibuya et al. (1998) Blood 91:37-45, Andrews et al. (1996) Stem Cells 14:661-677) has been carefully studied and modified accordingly. Additionally, a method for animal bleeds has been carefully studied, in order to work with animals that show the highest response to a given drug and which are at the same time under a minimum of stress (see Methods above). Thus, the dose of carboplatin has been increased to 180 mg/kg and was given by two intraperitoneal (i.p) injections on day 0 (half-dose) and day 4 (second half-dose). Carboplatin induced severe thrombocytopenia on day eight."}, "[2]": {"target": "T1, TPO-R (Homo sapiens, UniProt P40238)", "T1 construct": "endogenous in cells; host or cells: TF-1 cells", "T1 sequence (P40238 26-635)": "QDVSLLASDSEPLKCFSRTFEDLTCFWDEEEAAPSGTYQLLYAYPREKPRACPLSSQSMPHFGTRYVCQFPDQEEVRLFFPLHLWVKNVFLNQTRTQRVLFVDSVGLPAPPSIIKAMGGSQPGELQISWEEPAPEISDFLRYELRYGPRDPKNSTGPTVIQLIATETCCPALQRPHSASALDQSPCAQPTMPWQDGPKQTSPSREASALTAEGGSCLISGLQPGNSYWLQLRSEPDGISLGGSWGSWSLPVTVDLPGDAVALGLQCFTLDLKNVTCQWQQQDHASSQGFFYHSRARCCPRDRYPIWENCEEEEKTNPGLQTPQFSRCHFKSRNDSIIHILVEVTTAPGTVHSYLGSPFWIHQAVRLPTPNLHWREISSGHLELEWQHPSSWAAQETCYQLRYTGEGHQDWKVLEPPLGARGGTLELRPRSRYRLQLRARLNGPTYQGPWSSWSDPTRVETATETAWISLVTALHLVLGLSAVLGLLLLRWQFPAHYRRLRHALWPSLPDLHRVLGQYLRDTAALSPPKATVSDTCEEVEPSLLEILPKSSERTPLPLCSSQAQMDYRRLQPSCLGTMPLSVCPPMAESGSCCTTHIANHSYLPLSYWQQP", "assay": "In vitro signalling assay, dose response (STAT5 phosphorylation)", "format": "cell-based", "conditions": "dose response 0.3 nM to 30 μM", "procedure": "(§2) Treatment of the cells: TF-1 cells were grown to an approximate density of 1×10^6 cells in RPMI 1640 media with 1× Penicillin/Streptomycin, 2 mM glutamin, 10% fetal bovine serum (Hyclone) and 1 ng/ml GM-CSF, centrifuged down and resuspended in media with 3% serum and no GM-CSF. The cells were starved for 14-18 hours at 37° C. (5% CO2), spun down and resuspended at a density of 1×10^6 cells/ml in a medium without serum and GM-CSF. 2 ml of cell suspension was treated with the oligopeptide or TPO (as indicated per experiment) at 37° C. for 30 min. (5% CO2). 10 ml of ice-cold cell wash buffer was added per Falcon tube and centrifuged down quickly at 4° C. and 3000 rpm,. The medium was carefully aspirated and the wash repeated twice with PBS.\nThe following steps were performed on ice. The medium was aspirated and 0.6 ml of 2× lysis buffer per tube was added. This was pipetted up and down and transferred to Eppendorf tubes, placed on ice for circa 30 min., and centrifuged at 14,000×g for 10 min. The supernatant (lysate) was used in immunoprecipitations.\nImmunoprecipitations: 20-40 μL of GammaBind G Sepharose slurry was used per immunoprecipitation. The protein G beads were washed several times with 0.5× lysis buffer in Eppendorf tubes and 1-4 μg of PY-99 antibody (Santa Cruz-Biotechnology) was added per immunoprecipitation. The tubes were incubated with end-over-end rotation for 2 h at room temperature. The lysate was added and the tubes further incubated with end-over-end rotation overnight at 4° C. The beads were washed 3 times with 1× lysis buffer and once with 0.5 M Tris pH 6.5. 50 μl of SDS-sample buffer was added and the samples were boiled for 3 min prior to being applied to the gels.\nWestern blot analysis: about 10 μl/sample was run on a 8% Polyacrylamide mini gel, transferred to PVDF membrane (Millipore), blocked for 1 h in blocking buffer and incubated with αSTAT5 antibody (Santa Cruz-Biotechnology) overnight at 4° C. in an 1:1000 dilution. The membrane was washed, incubated with appropriate alkaline phosphatase conjugated secondary antibody, 1:2000 dilution at room temperature for 2 h. The PVDF-membrane was washed with Blotto and developed with NBT/BCIP (Cappel).\nDose-response curves of the present oligopeptides were performed and their activity was compared to the wild type TPO-Rp.\nPeptide dose response activity was evaluated primarily by in vitro signalling assays. Phosphorylation and thus activation of STAT5, a substrate of JAK2 kinase that is activated by TPO-Rp signal transduction, was measured. Each oligopeptide activity was addressed through a broad range of concentrations. Peptides were tested at concentrations of 0.3, 3, 10, 30 nM and 0.1, 0.3, 3 and 30 μM TPO-Rp. Oligopeptide activity as a measurement of STAT5 phosphorylation in each experiment was compared to activity obtained with 10 ng/ml of TPO, a hormone concentration that gives a maximal activation and signalling through TPO-R. All the peptides were evaluated four to five times in independent experiments. All the data was collected, Western blots were scanned and the intensity of the STAT5 phosphorylation was quantified.\nThe activity of each oligopeptide was addressed as percent of its maximum activity; thus 100% activity was assigned to the value of STAT5 protein phosphorylation obtained with 30 μM oligopeptide concentration."}, "[3]": {"target": "T1, TPO-R", "assay": "In vitro signalling assay (STAT5 phosphorylation in TF-1 cells) of stored peptide samples", "format": "cell-based", "conditions": "day 30, solution in water stored at −20° C.", "procedure": "as §2\nThe following steps were performed on ice. The medium was aspirated and 0.6 ml of 2× lysis buffer per tube was added. […]\nThe activity of the oligopeptides of the present invention and wild type TPO-Rp was examined by in vitro signalling assays. […] Phosphorylation and thus activation of STATS, a substrate of JAK2 kinase that is activated by TPO-R signal transduction, was measured. […] All the peptides were evaluated three to four times in independent experiments. All the data were collected, Western blots were scanned, and intensity of the STAT5 phosphorylation was quantified."}, "[4]": {"tested_on": "carboplatin treated mice", "assay": "Carboplatin (200 mg/kg) induced thrombocytopenia in mice", "format": "in vivo", "conditions": "for platelet number: carboplatin 200 mg/kg", "procedure": "Each test group was given a single daily dose administered by intraperitoneal injection. Daily doses were begun on day 0 and continued throughout the duration of the experimental period (day 13). Minimal doses were given on indicated days: 0 and 4; 0, 4 and 8; 0, 4, 8 and 12; days 8 through 14. Two i.p. injections of carboplatin 100 mg/kg were given on days 0 and 4.\nas §1, with “days 0” for “days −0”, “11, 14” for “11, 14,”, “18. Blodd” for “18. Blood”, “the tails” for “the tail”, “male C57BL/6J mice)” for “male C57BL/6Y mice),”\nThe dose of carboplatin has been increased to 200 mg/kg and was given as a cumulative dose by two intraperitoneal (i.p.) injections on day 0 (half-dose) and day 4 (second half-dose). Carboplatin induced severe thrombocytopenia on day eleven."}, "[5]": {"target": "thrombopoietin receptor (TPO-R) on TF-1 cells (UniProt P40238)", "assay": "cell-based or functional assay"}}, "note": "Where two headings read alike, the source gives them in different places. Where a SMILES comes first, the peptide text is derived from it.", "data": [{"compound": "CC(C)C[C@H](NC(=O)[C@H](CCC(N)=O)NC(=O)[C@H](CC(C)C)NC(=O)[C@H](CCCNC(=N)N)NC(=O)[C@H](Cc1ccc(O)cc1)NC(=O)[C@H](CCCNC(=N)N)NC(=O)[C@H](CO)NC(=O)[C@H](C)NC(=O)[C@@H]1CCCN1C(=O)[C@H](C)NC(=O)[C@H](CC(C)C)NC(=O)[C@H](CCC(=O)O)NC(=O)[C@H](CC(C)C)NC(=O)[C@@H](NC(=O)CN)[C@@H](C)O)C(=O)O", "note": "[SEQ ID No. 4] (H-GTLELAPASRYRLQL-OH; N-terminus and C-terminus assumed)", "values": [{"measurement": "effect on platelet levels / thrombocytopenia", "setting": "[1]; dose not given, carboplatin 180 mg/kg", "value": "some effect on platelet levels"}, {"measurement": "effects on other blood components", "setting": "[1]", "value": "None of the peptides used"}, {"measurement": "activity compared to wild type TPO-Rp (STAT5 phosphorylation)", "setting": "[2]", "value": "retained activity comparable to wild type TPO-Rp"}]}, {"compound": "CC(C)C[C@H](NC(=O)[C@H](CCCNC(=N)N)NC(=O)[C@H](C)NC(=O)[C@H](CCCNC(=N)N)NC(=O)[C@H](CC(C)C)NC(=O)[C@H](CCC(N)=O)NC(=O)[C@H](CC(C)C)NC(=O)[C@H](CCCNC(=N)N)NC(=O)[C@H](Cc1ccc(O)cc1)NC(=O)[C@H](CCCNC(=N)N)NC(=O)[C@H](CO)NC(=O)[C@H](CCCNC(=N)N)NC(=O)[C@@H]1CCCN1C(=O)[C@H](CCCNC(=N)N)NC(=O)[C@H](CC(C)C)NC(=O)[C@H](CCC(=O)O)NC(=O)[C@H](CC(C)C)NC(=O)[C@@H](NC(=O)CNC(=O)CNC(=O)[C@H](CCCNC(=N)N)NC(=O)[C@H](C)N)[C@@H](C)O)C(=O)N[C@@H](CC(N)=O)C(=O)O", "note": "[TPO-Rp wild type, ARGGTLELRPRSRYRLQLRARLN] (H-ARGGTLELRPRSRYRLQLRARLN-OH; N-terminus and C-terminus assumed)", "values": [{"measurement": "platelet (thrombocyte) number, percent change from basal", "setting": "[1]; 30 μg/kg/day i.p. daily from day 0, carboplatin 180 mg/kg", "value": "significantly increased the thrombocyte number"}, {"measurement": "platelet (thrombocyte) number, percent change from basal", "setting": "[1]; 300 μg/kg/day i.p. daily from day 0, carboplatin 180 mg/kg", "value": "significantly increased the thrombocyte number"}, {"measurement": "survival rate of treated animals", "setting": "[1]; CHI-square analysis, carboplatin 180 mg/kg", "value": "statistically significant survival rate"}, {"measurement": "effects on other blood components", "setting": "[1]", "value": "None of the peptides used"}, {"measurement": "activity (STAT5 phosphorylation) after storage", "setting": "[3]", "value": "significant decrease in activity"}]}, {"compound": "SEQ ID No. 1: oligopeptide A1-L18 of wild type TPO-Rp, 18 amino acids, without R9A, R11A substitutions (ARGGTLELRPRSRYRLQL; listed as Homo sapiens)", "values": [{"measurement": "activity compared to wild type TPO-Rp (STAT5 phosphorylation)", "setting": "[2]", "value": "activity comparable to the wild type TPO-Rp"}]}, {"compound": "SEQ ID No. 3: shortest oligopeptide, 15 amino acids long, G4-L18 of wild type TPO-Rp (GTLELRPRSRYRLQL; listed as Homo sapiens)", "values": [{"measurement": "activity compared to wild type TPO-Rp (STAT5 phosphorylation)", "setting": "[2]", "value": "retained activity comparable to wild type TPO-Rp"}]}, {"compound": "SEQ ID No. 5: oligopeptide G4-R21 of wild type TPO-Rp (GTLELRPRSRYRLQLRAR; listed as Homo sapiens)", "values": [{"measurement": "activity compared to wild type TPO-Rp (STAT5 phosphorylation)", "setting": "[2]", "value": "activity identical to wild type TPO-Rp"}]}, {"compound": "SEQ ID No. 6: oligopeptide G4-R21 of wild type TPO-Rp, R9A, R11A form (GTLELAPASRYRLQLRAR; listed as Homo sapiens)", "values": [{"measurement": "activity compared to wild type TPO-Rp (STAT5 phosphorylation)", "setting": "[2]", "value": "activity identical to wild type TPO-Rp"}]}, {"compound": "TPO: thrombopoietin, natural hormone, glycoprotein ligand of c-mpl (TPO-R)", "values": [{"measurement": "platelet number", "setting": "[1]; 2.4 μg/kg/day i.p. daily, carboplatin 180 mg/kg", "value": "unable to prevent a decrease in platelets"}, {"measurement": "platelet number", "setting": "[4]; 2.4 μg/kg/day days 0 through 13", "value": "again unable to protect decrease in platelets"}, {"measurement": "platelet number", "setting": "[4]; 10 μg/kg/day days 0 through 13", "value": "some effect that does have statistical significance"}, {"measurement": "effect on thrombocytopenia", "setting": "[4]; 10 μg/kg/day from day 8 through 14, carboplatin from day 0", "value": "did not show a significant effect on thrombocytopenia"}]}, {"compound": "thrombopoietin (TPO) (from UniProt P40225 22-353) (ligand)", "values": [{"measurement": "STAT5 phosphorylation in TF-1 cells; TPO concentration giving maximal activation", "setting": "[5]", "value": 10, "unit": "ng/mL"}]}]}
